Results on 4 compounds are retold here after PMC5773217, “Xylose donor transport is critical for fungal virulence” (PLoS Pathogens, 2018).

The target of data set [1] is T1, Gmt1 (Cryptococcus neoformans, UniProt J9VRU7).
T1 construct: gene CNAG_05817; full coding region, C-terminal His/V5 tag kept, pYES-DEST52 in S. cerevisiae INVSc1, membrane protein reconstituted into proteoliposomes
Nature of the data set: uptake into reconstituted proteoliposomes, LC-MS/MS. The format is biochemical. The conditions noted are these: 37°C.

Data set [2] concerns the target T2, Gmt2 (Cryptococcus neoformans, UniProt J9VY61).
T2 construct: gene CNAG_03426; full coding region, C-terminal His/V5 tag kept, pYES-DEST52 in S. cerevisiae INVSc1, membrane protein reconstituted into proteoliposomes
Described as above. The following applies: 37°C. The format is biochemical.

The test system of data set [3] is O=c1ccn([C@@H]2O[C@H](COP(=O)(O)OP(=O)(O)O[C@H]3OC[C@@H](O)[C@H](O)[C@H]3O)[C@@H](O)[C@H]2O)c(=O)[nH]1. Nature of the data set: cells, lysate or membranes. The following applies: antiport, preloaded with 10 mM UMP; 2 min; UDP-Xyl 0-100 μM.
The mark [4] stands for this setting: antiport, preloaded with 30 mM GMP, 16-substrate mixture, 50 μM each, 10 min.
Where [5] appears, read: antiport counter-substrate, 30 mM GMP preloaded, GDP-Man outside.

T2 sequence (J9VY61 entry or part of it): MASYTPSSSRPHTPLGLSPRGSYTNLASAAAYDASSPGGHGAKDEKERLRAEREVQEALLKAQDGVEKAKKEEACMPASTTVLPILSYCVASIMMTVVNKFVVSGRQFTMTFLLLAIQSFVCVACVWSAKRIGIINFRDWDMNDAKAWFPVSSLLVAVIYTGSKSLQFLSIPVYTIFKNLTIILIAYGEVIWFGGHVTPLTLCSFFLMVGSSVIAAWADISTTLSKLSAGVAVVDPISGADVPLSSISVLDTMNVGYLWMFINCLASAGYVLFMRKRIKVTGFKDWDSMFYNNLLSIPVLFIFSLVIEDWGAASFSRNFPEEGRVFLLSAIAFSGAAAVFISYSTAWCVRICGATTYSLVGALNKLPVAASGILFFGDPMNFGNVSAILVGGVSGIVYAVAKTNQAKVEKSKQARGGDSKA
T1 sequence (J9VRU7 entry or part of it): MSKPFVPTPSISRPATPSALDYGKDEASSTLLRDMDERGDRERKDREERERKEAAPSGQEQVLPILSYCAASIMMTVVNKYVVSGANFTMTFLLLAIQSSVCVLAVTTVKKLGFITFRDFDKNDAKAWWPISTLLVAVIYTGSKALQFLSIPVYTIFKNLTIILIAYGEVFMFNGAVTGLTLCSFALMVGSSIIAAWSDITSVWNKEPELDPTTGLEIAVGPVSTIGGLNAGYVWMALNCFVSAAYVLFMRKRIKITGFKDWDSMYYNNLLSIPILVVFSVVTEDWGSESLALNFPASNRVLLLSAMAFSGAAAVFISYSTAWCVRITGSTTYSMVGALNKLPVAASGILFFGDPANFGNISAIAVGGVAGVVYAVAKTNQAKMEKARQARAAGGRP

Take `Nc1nc2c(ncn2[C@@H]2O[C@H](COP(=O)(O)OP(=O)(O)O[C@H]3O[C@H](CO)[C@@H](O)[C@H](O)[C@@H]3O)[C@@H](O)[C@H]2O)c(=O)[nH]1` [GDP-Man]: the “uptake into reconstituted proteoliposomes, LC-MS/MS” value in data set [1] (setting [4]) was “Both proteins transported GDP-Man and smaller amounts of other GDP-sugars in exchange for GMP”; in data set [2] (setting [4]) it was “Both proteins transported GDP-Man and smaller amounts of other GDP-sugars in exchange for GMP”.
For `Nc1nc2c(ncn2[C@@H]2O[C@H](COP(=O)(O)O)[C@@H](O)[C@H]2O)c(=O)[nH]1` [GMP], the “uptake into reconstituted proteoliposomes, LC-MS/MS” value in data set [1] (setting [5]) was “Both proteins transported GDP-Man and smaller amounts of other GDP-sugars in exchange for GMP”; in data set [2] (setting [5]), “Both proteins transported GDP-Man and smaller amounts of other GDP-sugars in exchange for GMP”.
One may read the Km as the substrate concentration at which the rate is half of its maximum. The kcat is the number of substrate molecules converted per active site and unit of time at saturation. As for Uxt1 (Cryptococcus neoformans H99), in data set [3], the Michaelis constant (Km) was 1.0 ± 0.2 µM and the kcat was 0.9 s⁻¹.
As to Uxt2 (Cryptococcus neoformans H99), in data set [3], the Km came out at 2.2 ± 0.5 µM and the kcat was 0.4 s⁻¹.
